Measured values published in publication PMC9732821, “Neurotrophic Activity and Its Modulation by Zinc Ion of a Dimeric Peptide Mimicking the Brain-Derived Neurotrophic Factor N-Terminal Region” (ACS Chemical Neuroscience, 2022).

Test system: SH-SY5Y cells
Test: neurite outgrowth of differentiated SH-SY5Y cells
Type: cell-based, human
Conditions: 3 days after 5 days retinoic acid
Method: Figure 3 Neurite outgrowth stimulated by BDNF and its mimetic peptide ligands. (A) Top, left: schematic timeline of the experiment. SH-SY5Y cells were differentiated for 5 days (d1–5) by addition of retinoic acid (RA, gray bar) in the cell medium. Then, cells were stimulated for 3 days (d6–8) with 150 ng/mL BDNF or different concentrations of its peptide-mimetics (black bar) or left untreated (white bar). On the right and bottom, representative images of the differentiated cells at the end of each treatment. Scale bar 50 μm. (B) Scatter dot plot of the total neurite length, normalized to the number of cell bodies present in each analyzed field. […] For each field, an average of 50–200 cells were counted. […] (C) Representative fluorescence images of DIV3 Ren cells stained with DAPI (blue) and β3-tubulin (green) after differentiation with the standard medium (CTRL), or with the standard medium supplemented with 50 ng/mL BDNF or with 1 μM d-bdnf. […] (D) Column plot of the mean ± SD fraction of β3-tubulin (green) positive on the total cells, counted in the DAPI channel of the analyzed fields (nfields) (CTRL: nfields = 10 and total ncells = 4756; BDNF: nfields = 11 and total ncells = 4330; d-bdnf: nfields = 10 and total ncells = 5619 cells; ****p < 0.0001, *p < 0.05 according to the one-way ANOVA with Dunnett’s multiple comparison test). […]

Substance: HSDPARRGELSVC-C-VSLEGRRAPDSH (disulfide) [d-bdnf]
- neurite network (1 and 5 μM, compared with BDNF 150 ng/mL): able to elicit a neurite network similar to that raised by nM concentrations of BDNF
- neurite network (higher doses (10 μM)): not able to produce the same effect
